Values of other authors, collected in patent US20100317636A1, “REDUCING THE RISK OF CHRONIC LUNG DISEASE IN INFANTS” (China Medical University, a Taiwan corporation, priority 2006, published 2010).

Key:
[1] = Ryrfeldt et al. (1982)

solubility in chloroform (chloroform): freely soluble | solubility in ethanol (ethanol): sparingly soluble | solubility in heptane (heptane): practically insoluble | solubility in water (water): practically insoluble | degradation in the liver [1]: rapidly degraded
Structure (SMILES): CCCC1O[C@@H]2C[C@H]3[C@@H]4CCC5=CC(=O)C=C[C@]5(C)[C@H]4[C@@H](O)C[C@]3(C)[C@]2(C(=O)CO)O1 (stereo partly drawn) [Budesonide, 16 alpha, 17 alpha-(22R,S)-propylmethylenedioxypregna-1,4-diene-11 beta, 21-diol-3,20-dione]
